Laboratory results as given in ChEMBL document CHEMBL3797142, “The self-assembly of a camptothecin-lysine nanotube” (Bioorg Med Chem Lett, 2016).
Converted amounts (≈) assume the structure as drawn.

Tests used:
[1] = Drug level in pH 7.4 PBS treated with camptothecin-lysine nanotube at 37 degC after 1 week by RP-HPLC analysis; assay type: physicochemical; details: buffer, pH 7.4, 168 h
[2] = Drug level in pH 7.4 PBS treated with camptothecin-lysine at 1 mM at 37 degC after 3 days by RP-HPLC analysis; assay type: physicochemical; details: buffer, pH 7.4, 72 h, 1000 µM
[3] = Drug level in pH 9 borate buffer treated with camptothecin-lysine at 1 mM at 37 degC by RP-HPLC analysis; assay type: physicochemical; details: pH 9, 1000 µM
[4] = Critical aggregation concentration of the compound in pH 7.4 PBS by Nile Red dye based luminescence spectrometric method; assay type: ADME; details: buffer
[5] = Drug metabolism in pH 7.4 PBS assessed as remaining parent compound level at 1 mM at 37 degC after 3 days by RP-HPLC analysis; assay type: physicochemical; details: read-out: Stability
[6] = Induction of self assembly in pH 7.4 PBS assessed as thickness of nanotube walls at 1 mM after 72 hrs by transmission electron microscopy; assay type: physicochemical; details: buffer, pH 7.4, 72 h, 1000 µM
[7] = Solubility of the compound in pH 7.4 PBS; assay type: physicochemical
NCI-H460 = assay: Cytotoxicity against human NCI-H460 cells assessed as cell viability after 96 hrs by MTT assay; assay type: functional, cell-based; details: NCI-H460, 96 h
NCI-H23 = assay: Cytotoxicity against human NCI-H23 cells assessed as cell viability after 96 hrs by MTT assay; assay type: functional, cell-based; details: NCI-H23, 96 h
[8] = Induction of J-type self aggregation in pH 7.4 PBS at 250 uM after 3 days by UV-Vis spectrometry; assay type: physicochemical; details: buffer, pH 7.4, 72 h
[9] = Induction of self assembly in pH 7.4 PBS assessed as diameter of nanotube at 10 mM after 24 hrs by transmission electron microscopy; assay type: physicochemical; details: buffer, pH 7.4, 24 h, 10000 µM
[10] = Induction of self assembly in pH 7.4 PBS assessed as diameter of nanotube at 1 mM after 72 hrs by transmission electron microscopy; assay type: physicochemical; details: buffer, pH 7.4, 72 h, 1000 µM
[11] = Induction of non specific self aggregation in pH 7.4 PBS at 250 uM; assay type: physicochemical; details: buffer, pH 7.4, 250 µM
[12] = Critical aggregation concentration of the compound in water by Nile Red dye based luminescence spectrometric method; assay type: ADME; details: buffer
A549 [13] = assay: Cytotoxicity against human A549 cells assessed as cell viability after 96 hrs by MTT assay; assay type: functional, cell-based; details: A549, 96 h
A549 [14] = assay: Drug uptake in human A549 cells at 10 mM after 8 hrs by flow cytometric method; assay type: ADME, cell-based; details: a549, 8 h, 10000 µM
[15] = Induction of self assembly in pH 7.4 PBS assessed as zeta potential of nanotube at 1 mM after 1 day; assay type: physicochemical; details: buffer, pH 7.4, 24 h, 1000 µM
[16] = Solubility of the compound in water; assay type: physicochemical
[17] = Induction of self assembly in pH 7.4 PBS assessed as beta-sheet interaction within assembly at 20 mM lyophilized for 3 days followed by redissolved in D2O by fourier transform infrared spectroscopic method; assay type: physicochemical; details: buffer, pH 7.4, 72 h, 20000 µM
[18] = Induction of self assembly in water at pH 7 assessed as diameter of nanotube at 1 mM after 72 hrs by transmission electron microscopy; assay type: physicochemical; details: buffer, pH 7, 72 h, 1000 µM
[19] = Drug level in pH 7.4 PBS treated with camptothecin-lysine at 0.1 mM at 37 degC after 15 hrs by RP-HPLC analysis; assay type: physicochemical; details: buffer, pH 7.4, 15 h, 100 µM
[20] = Drug level in pH 6 PBS treated with camptothecin-lysine at 0.1 mM at 37 degC after 15 hrs by RP-HPLC analysis; assay type: physicochemical; details: buffer, pH 6, 15 h, 100 µM
A549 [21] = assay: Drug uptake in human A549 cells at 10 mM after 12 to 24 hrs by flow cytometric method; assay type: ADME, cell-based; details: a549, 10000 µM

CC[C@@](O)(C(=O)O)c1cc2n(c(=O)c1CO)Cc1cc3ccccc3nc1-2
Drug metabolism [1]: metabolite_detected | Drug metabolism [2]: metabolite_detected | Drug metabolism [3]: metabolite_detected

CC[C@@]1(OC(=O)CCC(=O)NCCCC[C@H](N)C(N)=O)C(=O)OCc2c1cc1n(c2=O)Cc2cc3ccccc3nc2-1
CAC [4]: 160 µM | remaining at 72 h, 1000 µM [5]: 39% | Activity [6]: 7.5 nm | solubility [7]: 5.14 mg/mL (≈ 8.93 mM) | IC50 (NCI-H460): 0.43 µM | IC50 (NCI-H23): 0.12 µM | Activity [8]: Active | Activity [9]: < 500 nm | Activity [10]: 70 nm | Activity [11]: Active | CAC [12]: 200 µM | IC50 (A549 [13]): 1.12 µM | Drug uptake (A549 [14]): Active | Activity [15]: 19.7 mV | solubility [16]: 12.1 mg/mL (≈ 21 mM) | Activity [17]: Not Active | Activity [18]: 40 nm

CC[C@@]1(O)C(=O)OCc2c1cc1n(c2=O)Cc2cc3ccccc3nc2-1 [CAMPTOTHECIN]
Drug metabolism [1]: metabolite_detected | Drug metabolism [2]: metabolite_detected | Drug metabolism [19]: metabolite_detected | IC50 (NCI-H460): 0.19 µM | IC50 (NCI-H23): 0.07 µM | Drug metabolism [20]: metabolite_detected | IC50 (A549 [13]): 0.35 µM | Drug uptake (A549 [21]): Active | Drug uptake (A549 [14]): Active | solubility [16]: 0.003 mg/mL (≈ 0.00861 mM)
